Several values for one entry are separate records, joined by “and”; a condition that tells them apart may be missing. Equal entries are not always repeated.
Experiments:
[1] = tested on: endometrial stromal T HESC cells; assay: MTT reduction assay, cell viability; assay type: cell-based, human; settings: for IC50: Homo sapiens; for IC50 / IC10: T HESC cells, 48-h incubation, MTT
Experimental: (§1) The effect of resveratrol and its natural analogs on the viability of endometriotic epithelial 12Z cells and endometrial stromal T HESC cells was assessed using the MTT assay. Table 1 presents the IC10 and IC50 values (the inhibitor concentration required for 10% and 50% reduction in […]) obtained after 48-h incubation with the tested compounds. […] The cytotoxicity of resveratrol and pterostilbene to 12Z cells was not markedly different. T HESC and 12Z cells varied in susceptibility to the treatment with stilbenes tested, as evidenced by the cytotoxic doses shown in Table 1. […] Similarly, resveratrol evoked much weaker cytotoxic effects in T HESC cells than in 12Z cells. Polydatin at concentrations up to 400 µM was not cytotoxic to the T HESC cells, while at a dose of 86.76 µM, it induced the first cytotoxic symptoms in 12Z cells. […] The increased susceptibility of endometriotic 12Z cells than endometrial T HESC cells to resveratrol and its natural analogs was consistent in both assays (Fig. 1).
(§2) The immortalized human endometriotic epithelial cells (12Z), derived from peritoneal endometriosis lesions, were obtained from Applied Biological Materials Inc. (Richmond, Canada). The 12Z cells were cultured in Dulbecco's Modified Eagle Medium/Nutrient Mixture F-12 (DMEM/F12), containing 10% fetal bovine serum (FBS) and 50 mg/L gentamycin. American Type Culture Collection (ATCC, Manassas, VA, USA) was the source for human endometrial stromal cells immortalized by telomerase (T HESC, CRL-4003). The cells were maintained routinely in phenol red-free DMEM/F12 supplemented with 10% charcoal/dextran treated FBS, 1% ITS + 1, and 50 mg/L gentamycin, at 37 °C and 5% CO2. Both cell lines were negative for mycoplasma contamination; mycoplasma-free cells were confirmed repeatedly during the study.
(§3) Cells were seeded at a density of 0.15 × 10^5 cells/cm^2 in 6-well plates. The 24-h cell cultures were treated with resveratrol and its derivatives for 48 h under standard culture conditions. Camptothecin was applied as a reference apoptosis inducer; its final concentrations were set to 5 µM and 50 µM.
(§4) Cell viability and metabolic activity were determined using the MTT colorimetric assay, according to the protocol described in previous studies. Based on the obtained data, the dose–response curves were plotted, and inhibitory concentrations (IC) were calculated. In addition, cell proliferation was measured using the alamarBlue™ Cell Viability Reagent (Invitrogen, Carlsbad, CA, USA) according to the manufacturer's protocol. Fluorescence was measured using a Tecan M200 Infinite microplate reader (Tecan Group Ltd., Männedorf, Switzerland).

[2] = tested on: endometriotic epithelial 12Z cells; assay: MTT reduction assay, cell viability; assay type: cell-based, human; settings: for IC10 / IC50: 12Z cells, 48-h incubation; for IC50: Homo sapiens; for cytotoxicity in 12Z versus T HESC cells, comparing IC50 values: 48 h
Experimental: as §1, §2, §3, §4

caspases-3/7 = assay: APO-One Homogenous Caspase-3/7 Assay in 12Z cells; assay type: cell-based, human
Experimental: Resveratrol evoked a dose-dependent caspase-3/7 activation in 12Z cells (F = 2467.29, p < 0.0001). […] It was consistent with the results of CASP3 gene expression activation. […] There was a 2.8-fold activation of caspase 3/7 enzymes following treatment with piceatannol at a 200 μM dose, which complies with the CASP3 mRNA expression level.
To quantitate the proteolytic activity of caspase 3 and 7, we performed an assay based on the proteolytic cleavage of the C-terminal side of the aspartate residue in the DEVD peptide substrate by caspase 3/7 and into the fluorescent rhodamine 110. Caspase 3/7 activity was determined using the APO-One Homogenous Caspase-3/7 Assay (Promega Corporation, Wisconsin, USA) following the manufacturer's instructions. The obtained data were normalized to cellular protein content. The total protein was quantified by BCA assay (Pierce® BCA Protein Assay Kit, Thermo Scientific Inc., USA) according to the manufacturer's protocol.

endometriotic 12Z cells [3] = assay: TUNEL assay of DNA fragmentation, flow cytometry; assay type: cell-based, human; settings: 48 h
Experimental: Cell death via apoptosis in 12Z cells after exposure to resveratrol and its natural derivatives was determined by detecting DNA fragmentation (Fig. 5). DNA degradation was correlated in a dose-dependent manner. […] Tunel-positive cell population in the 12Z cell culture treated with camptothecin was estimated at 32.5%, compared to 0.6% in the vehicle-treated control culture.
The detection of DNA fragmentation in 12Z cells was performed using the terminal deoxynucleotidyl-transferase-mediated dUTP nick end labeling (TUNEL) assay with In Situ Cell Death Detection Kit (Roche Diagnostics, Indianapolis, IN, USA). The test detects DNA breakage that is identified by terminal deoxynucleotidyl transferase. After treatment, the harvested cells were fixed in 4% paraformaldehyde and permeabilized in 0.1% Triton X-100. After washing in PBS, cells were subjected to TUNEL labeling with fluorescein-labeled dUTP and terminal deoxynucleotidyl transferase mixture. Cells were analyzed by flow cytometry using an Amnis™ FlowSight™ flow cytometer.

endometriotic 12Z cells [4] = assay: Annexin V/PI double staining, flow cytometry; assay type: cell-based, human; settings: 200 µM, 48 h
Experimental: After treating endometriotic 12Z cells with stilbenes, the phosphatidylserine externalization was measured by Annexin V and PI double staining (Fig. 4A). Examples of the single-cell images from sub-populations: live cells (Annexin V/PI-double negative), early apoptotic cells (Annexin V-positive/PI-negative), late apoptotic cells (Annexin V/PI-double positive), necrotic cells (Annexin V-negative/PI-positive) are presented in Fig. 4B.
Figure 4 Flow cytometry analysis of endometriotic 12Z cells stained with PI and FITC-Annexin V. Cells were treated with resveratrol, pterostilbene, piceatannol, polydatin and their vehicle (0.5% ethanol) for 48 h. Camptothecin was used as a positive control. (A) Representative images of each distinct cellular subset. n = 4; scale bars = 20 μm. (B) Representative flow cytometry dot plots. (C) Summary of FITC-Annexin V and PI stained populations in 12Z cell cultures. […] The results are presented as means ± SD. *p < 0.05, **p < 0.01, ***p < 0.001 compared to vehicle control.
Apoptosis was determined by Annexin V and propidium iodide (PI) double staining with the FITC Annexin V Apoptosis Detection kit (BD Pharmingen, Heidelberg, Germany) by flow cytometry according to the manufacturer's instructions. […] The cells were analyzed with an Amnis™ FlowSight™ flow cytometer (Luminex Corporation, TX, USA). […]

[5] = tested on: BAX, FAS, CASP3, CASP8, and CASP9 genes; assay: Real-time PCR, proapoptotic gene panel in 12Z cells; assay type: cell-based, human
Description: (§5) Figure 7 Effect of resveratrol and its analogs on the mRNA expression of BCL2, BCL2L1, BAX, FAS, CASP3, CASP8, and CASP9 genes in endometriotic 12Z cells, assessed by real-time PCR. Data were normalized against β-actin and expressed as relative mRNA expression (-fold of control). The values represent the means (n = 3) ± SD. Significant differences *p < 0.05; **p < 0.01; ***p < 0.001 compared to vehicle control.
The FAS overexpression depended on the concentration of stilbenes, reaching a relative expression up to tenfold higher in treated endometriotic cells. The role of proteases in resveratrol-, pterostilbene-, and piceatannol-induced apoptosis was also indicated by the upregulation of well-known initiator caspases of the mitochondrial and death receptor apoptotic pathways such as caspases 8, 9 and executioner caspase 3 (Fig. 7).
Gene expression analysis was carried out according to the previously described protocol. TRI reagent was applied for total RNA isolation, synthesis cDNA Transcriptor First-Strand kit (Roche Diagnostics GmbH, Mannheim, Germany) for first-strand cDNA synthesis, and SYBR® Select Master Mix (Life Technologies, Carlsbad, CA, USA) for real-time PCR. […] Relative mRNA expression was shown as fold change calculated using the 2^−ΔΔCt method compared with control cells.

endometriotic 12Z cells [6] = assay: Cell cycle analysis by PI staining, flow cytometry; assay type: cell-based, human; settings: 100 µM, 48 h
Experimental: To investigate whether resveratrol and its analogs have interfered with cell cycle progression in endometriotic 12Z cells, we analyzed the cell cycle distribution by flow cytometry. […] The largest subpopulation of apoptotic cells was found in the cell cultures treated with resveratrol and pterostilbene at the concentration of 100 µM (31.2 ± 8.0% and 33.1 ± 9.7%, respectively) and piceatannol at a concentration of 200 µM (45.1 ± 5. 6%).
Cell cycle progression was analyzed by flow cytometry using PI staining. After treatment, 12Z cells were collected, washed with PBS, and fixed in 70% ethanol. The cells were then washed, resuspended in PBS, and stained with 50 μg/ml PI in the presence of 100 μg/ml RNase A. Cell cycle distribution was analyzed using a FACSCanto flow cytometer (Becton Dickinson, San Jose, CA, USA). Data analysis was performed with the FACS Diva software (Becton Dickinson).

BAX gene = assay: Real-time PCR, BAX mRNA expression in 12Z cells; assay type: cell-based, human; settings: fold of control, normalized against β-actin
Description: The effect of resveratrol and its natural analogs on the expression of pro- or antiapoptotic regulators, was examined by real-time PCR. […] BAX overexpression was also documented in 12Z cells exposed to resveratrol.
as §5
Gene expression analysis was carried out according to the previously described protocol. TRI reagent was applied for total RNA isolation, synthesis cDNA Transcriptor First-Strand kit (Roche Diagnostics GmbH, Mannheim, Germany) for first-strand cDNA synthesis, and SYBR® Select Master Mix (Life Technologies, Carlsbad, CA, USA) for real-time PCR. The levels of transcripts were normalized using β-actin as an internal control, which was previously applied in 12Z cells. Relative mRNA expression was shown as fold change calculated using the 2^−ΔΔCt method compared with control cells.

[7] = tested on: endometrial stromal cells derived from patients with endometriosis; parameters: method as in PMID 33083332, PMID 26782781; settings: cited from earlier work
CASP3 gene = assay: Real-time PCR, caspase-3 mRNA expression in 12Z cells; assay type: cell-based, human; settings: concentration not given
Description: as §5
We analyzed the activation of caspases at the molecular and cellular levels. […] Caspase 3 expression in pterostilbene-induced apoptosis in endometriotic cells was much weaker, even though this compound generated the most significant number of DNA strand breaks. […] It has now been recognized that in response to apoptotic stimuli, mitochondria can also release caspase-independent cell death effectors such as apoptosis-inducing factor (AIF) and endonuclease G. Following release and translocation to the nucleus, AIF becomes an active executioner of the cell death by the initiation of large-scale DNA fragmentation^37. It is essential to realize that apoptosis evolved complex death pathways, which overlap with each other. […]
Gene expression analysis was carried out according to the previously described protocol. […] Relative mRNA expression was shown as fold change calculated using the 2^−ΔΔCt method compared with control cells.

[8] = tested on: endometrial stromal St-T1b cells; parameters: method as in PMID 35361545; settings: 100 µM, 48-h treatment; cited from earlier work
epithelial 12Z cells = tested on: epithelial 12Z cells; parameters: method as in PMID 35361545; settings: 100 µM, 48-h treatment; cited from earlier work

Oc1cc(O)cc(C=Cc2ccc(O)c(O)c2)c1 [Piceatannol, 3,3′,4,5′-tetrahydroxystilbene]
IC50 [1]: 364 ± 17 µM | IC10 [1]: 222.68 ± 14.49 ^# µM | IC10 [2]: 167.50 ± 11.36 µM | IC50 [2]: 224 ± 6.47 µM | caspase-3/7 activity increase (caspases-3/7; 200 µM): 2.8 fold | DNA strand breaks (TUNEL-positive cells) (endometriotic 12Z cells [3]; 100 µM): 49.6% and ~50%

OC[C@H]1O[C@@H](Oc2cc(O)cc(/C=C/c3ccc(O)cc3)c2)[C@H](O)[C@@H](O)[C@@H]1O [Polydatin, 3,4′,5-trihydroxystilbene-3-β-D-glucoside]
IC50 [1]: > 400 µM | IC10 [1]: > 400 µM | cytotoxicity to T HESC cells ([1]; concentrations up to 400 µM): not cytotoxic | IC10 [2]: 86.76 µM and 86.76 ± 10.01 µM | IC50 [2]: 243 ± 22.5 µM | apoptosis stage induced (Annexin V/PI) (endometriotic 12Z cells [4]; 50 µM, 100 µM): increased population of early apoptosis cells without induction of late apoptosis | caspase 3/7 activity change (caspases-3/7; concentration not given): not significantly changed | mRNA transcripts of BAX, FAS, CASP3, CASP8, and CASP9 genes [5]: did not significantly increase | DNA strand breaks (TUNEL-positive cells) (endometriotic 12Z cells [3]; concentration not given): 1.08%

COc1cc(C=Cc2ccc(O)cc2)cc(OC)c1 [Pterostilbene, 3,5-dimethoxy-4′-hydroxystilbene]
subpopulation of apoptotic cells (lower DNA content, subG1) (endometriotic 12Z cells [6]): 33.1 ± 9.7% | IC50 [1]: 145 ± 7.71 µM | IC10 [1]: 113.79 ± 5.11 ^## µM | IC10 [2]: 29.34 ± 4.46 µM | cytotoxicity in 12Z versus T HESC cells, comparing IC50 values [2]: almost twofold lower | IC50 [2]: 73.9 ± 6 µM | treated cells classified as apoptotic cells (endometriotic 12Z cells [4]): approximately 94% | caspase-3/7 activity increase (caspases-3/7; 100 µM): modestly activated | caspase-3/7 activity increase (caspases-3/7; 200 µM): inhibited their activity | BAX mRNA expression increase (BAX gene; 100 µM): approximately 16 fold | DNA strand breaks (TUNEL-positive cells) (endometriotic 12Z cells [3]; 200 µM): 62.6%

Oc1ccc(/C=C/c2cc(O)cc(O)c2)cc1 [Resveratrol]
subpopulation of apoptotic cells (lower DNA content, subG1) (endometriotic 12Z cells [6]): 31.2 ± 8.0% | IC50 [1]: 251 ± 1.58 µM | IC10 [1]: 160.35 ± 7.05 µM | IC10 [2]: 8.99 ± 4.29 µM | cytotoxicity in 12Z versus T HESC cells, comparing IC50 values [2]: fivefold higher | IC50 [2]: 49.3 ± 11.4 µM | caspase-3/7 activity increase (caspases-3/7; 100 µM): 10.3 fold | endometriotic stromal cell viability (reduced to) ([7]; 200 μM): approximately 50% | influence on viability of endometrial stromal cells ([7]; concentrations up to 100 μM, 48-h treatment): did not influence the viability | caspase-3 mRNA expression upregulation (CASP3 gene): 7.3 fold | BAX mRNA expression increase (BAX gene; 50 µM): approximately sevenfold | reduction of cell viability [8]: 49.2% | DNA strand breaks (TUNEL-positive cells) (endometriotic 12Z cells [3]; 100 µM): 42.8% | reduction of cell viability (epithelial 12Z cells): 45.4%

CC[C@@]1(O)C(=O)OCc2c1cc1n(c2=O)Cc2cc3ccccc3nc2-1 [camptothecin, reference compound]
DNA strand breaks (TUNEL-positive cells) (endometriotic 12Z cells [3]; concentration not given): 32.5%

— article PMC10349804, “Natural resveratrol analogs differentially target endometriotic cells into apoptosis pathways” (Scientific Reports, 2023)
